Reference: US10968178B2, “IP6K inhibitors” (TAKEDA PHARMACEUTICAL COMPANY LIMITED, priority 2017, dated 2021)

What was measured:
Format in all cases: biochemical
[1] = target: T1, human IP6K1 (Homo sapiens, UniProt Q92551); experiment: IP6K enzyme inhibitory assay (ADP-Glo Kinase Assay), human IP6K1; conditions: compound concentration 0.1 μM; read-out: ADP-Glo method inhibitory rate (%) human IP6K1
T1 construct: human IP6K1 (1-441) gene; GST; made in house; host or cells: Sf-9 insect cells
Experimental: (§1) IP6K Enzyme Inhibitory Assay
(§2) Human IP6K3 enzyme was prepared by transducing human IP6K3 (1-410) gene into BL21 (DE3) Escherichia coli and purifying by Ni-NTA (nickel-nitrilotriacetic acid) affinity column. […] The enzymes were used after preservation at −70° C. The IP6K enzyme inhibitory activity of the test compound was measured by the following experiment method and using ADP-Glo™ Kinase Assay (manufactured by Promega). A test compound diluted with an assay buffer (20 mM HEPES (pH 7.5), 6 mM MgCl2, 0.01% Tween-20, 1 mM DTT) was first added by 2 μL to a 384 well plate. […] The IP6K enzyme solution diluted with the assay buffer was added by 2 μL to start the enzyme reaction. Incubation was performed at room temperature for a given time (120 min for rat IP6K3 alone, 60 min for others). After incubation at room temperature, ADP-Glo solution prepared according to the protocol of Promega was added by 3 μL to the 384 well plate and reacted at room temperature for 30 min. Thereafter, Kinase-Detection solution was added by 6 μL to the 384 well plate and reacted at room temperature for 60 min. After the reaction, the luminescence intensity was measured by a plate reader Envision (manufactured by PerkinElmer).

[2] = target: T2, human IP6K2 (Homo sapiens, UniProt Q9UHH9); experiment: IP6K enzyme inhibitory assay (ADP-Glo Kinase Assay), human IP6K2; conditions: compound concentration 0.1 μM; read-out: ADP-Glo method inhibitory rate (%) human IP6K2
T2 construct: human IP6K2 (1-426) gene; GST; made in house; host or cells: Sf-9 insect cells
T2 sequence (Q9UHH9 1-426): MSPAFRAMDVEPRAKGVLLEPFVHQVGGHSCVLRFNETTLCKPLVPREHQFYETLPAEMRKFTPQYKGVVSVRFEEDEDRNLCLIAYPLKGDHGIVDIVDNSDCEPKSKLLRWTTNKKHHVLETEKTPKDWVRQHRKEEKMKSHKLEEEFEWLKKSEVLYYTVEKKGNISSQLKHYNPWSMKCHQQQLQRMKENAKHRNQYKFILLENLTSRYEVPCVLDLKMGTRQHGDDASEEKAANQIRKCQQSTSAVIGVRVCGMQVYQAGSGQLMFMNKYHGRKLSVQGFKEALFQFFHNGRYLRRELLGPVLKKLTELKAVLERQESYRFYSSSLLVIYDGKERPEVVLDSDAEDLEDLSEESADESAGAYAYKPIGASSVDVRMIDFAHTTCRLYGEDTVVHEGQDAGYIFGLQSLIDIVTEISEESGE
Experimental: as §1, §2

[3] = target: T3, human IP6K3 (Homo sapiens, UniProt Q96PC2); experiment: IP6K enzyme inhibitory assay (ADP-Glo Kinase Assay), human IP6K3; conditions: compound concentration 0.1 μM; read-out: ADP-Glo method inhibitory rate (%) human IP6K3
T3 construct: human IP6K3 (1-410) gene; made in house; host or cells: BL21 (DE3) Escherichia coli
T3 sequence (Q96PC2 1-410): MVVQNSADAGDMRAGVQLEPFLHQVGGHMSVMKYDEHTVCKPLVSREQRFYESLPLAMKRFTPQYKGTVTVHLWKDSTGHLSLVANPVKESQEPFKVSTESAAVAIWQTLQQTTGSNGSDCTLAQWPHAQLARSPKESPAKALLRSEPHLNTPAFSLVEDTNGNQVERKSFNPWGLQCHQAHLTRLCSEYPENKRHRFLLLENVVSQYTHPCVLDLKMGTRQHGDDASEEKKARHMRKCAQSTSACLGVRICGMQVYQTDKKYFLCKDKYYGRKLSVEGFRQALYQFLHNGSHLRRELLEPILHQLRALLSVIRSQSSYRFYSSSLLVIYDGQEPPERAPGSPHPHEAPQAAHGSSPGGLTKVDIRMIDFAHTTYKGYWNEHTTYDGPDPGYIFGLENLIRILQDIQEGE
Experimental: as §1, §2

T1 sequence (Q92551 whole entry): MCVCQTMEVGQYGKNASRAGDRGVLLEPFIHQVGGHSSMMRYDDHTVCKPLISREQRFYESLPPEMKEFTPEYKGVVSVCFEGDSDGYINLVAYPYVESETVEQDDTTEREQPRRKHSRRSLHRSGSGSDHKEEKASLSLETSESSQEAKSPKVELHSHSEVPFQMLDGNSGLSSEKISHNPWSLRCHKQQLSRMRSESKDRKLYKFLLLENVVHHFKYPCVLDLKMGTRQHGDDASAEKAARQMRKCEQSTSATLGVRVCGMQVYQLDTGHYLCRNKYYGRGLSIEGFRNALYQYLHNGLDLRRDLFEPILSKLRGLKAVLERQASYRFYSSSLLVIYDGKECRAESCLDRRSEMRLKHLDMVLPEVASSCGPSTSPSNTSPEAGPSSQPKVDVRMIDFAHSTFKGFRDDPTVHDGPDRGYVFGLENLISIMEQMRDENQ

SMILES	inhibition at 0.1 µM [1] [%]	inhibition at 0.1 µM [2] [%]	inhibition at 0.1 µM [3] [%]
O=C(O)c1ccc2c(c1)[C@]1(CC[C@@H](Oc3ccc(C(F)(F)F)cn3)CC1)C(=O)N2 [Example 25, (1r,4r)-2′-oxo-4-((5-(trifluoromethyl)pyridin-2-yl)oxy)-1′,2′-dihydrospiro[cyclohexane-1,3′-indole]-5′-carboxylic acid]	95	97	98
O=C(O)c1ccc2c(n1)[C@]1(CC[C@@H](Oc3ccc(Cl)cc3Cl)CC1)C(=O)N2 [Example 102, (1r,4r)-4-(2,4-dichlorophenoxy)-2′-oxo-1′,2′-dihydrospiro[cyclohexane-1,3′-pyrrolo[3,2-b]pyridine]-5′-carboxylic acid]	105	94	97
O=C(O)c1ccc2c(n1)[C@]1(CC[C@H](Oc3ccc(Cl)cc3C(F)(F)F)CC1)C(=O)N2 [Example 96, (1s,4s)-4-(4-chloro-2-(trifluoromethyl)phenoxy)-2′-oxo-1′,2′-dihydrospiro[cyclohexane-1,3′-pyrrolo[3,2-b]pyridine]-5′-carboxylic acid]	95	99	101
Cc1cc(C(F)(F)F)cnc1O[C@H]1CC[C@]2(CC1)C(=O)Nc1ccc(C(=O)O)nc12 [Example 103, (1s,4s)-4-((3-methyl-5-(trifluoromethyl)pyridin-2-yl)oxy)-2′-oxo-1′,2′-dihydrospiro[cyclohexane-1,3′-pyrrolo[3,2-b]pyridine]-5′-carboxylic acid]	98	99	99
COc1cc(Cl)ccc1O[C@H]1CC[C@@]2(CC1)C(=O)Nc1ccc(C(=O)O)cc12 [Example 82, (1r,4r)-4-(4-chloro-2-methoxyphenoxy)-2′-oxo-1′,2′-dihydrospiro[cyclohexane-1,3′-indole]-5′-carboxylic acid]	98	101	99
N#Cc1cccc(F)c1O[C@H]1CC[C@@]2(CC1)C(=O)Nc1ccc(C(=O)O)cc12 [Example 62, (1r,4r)-4-(2-cyano-6-fluorophenoxy)-2′-oxo-1′,2′-dihydrospiro[cyclohexane-1,3′-indole]-5′-carboxylic acid]	95	91	99
N#Cc1cc(Cl)ccc1O[C@H]1CC[C@@]2(CC1)C(=O)Nc1ccc(C(=O)O)cc12 [Example 7, (1r,4r)-4-(4-chloro-2-cyanophenoxy)-2′-oxo-1′,2′-dihydrospiro[cyclohexane-1,3′-indole]-5′-carboxylic acid]	100	101	86

Second part, the compound after the results:

inhibition at 0.1 µM [1] [%]	inhibition at 0.1 µM [2] [%]	inhibition at 0.1 µM [3] [%]	SMILES
94	93	92	O=C(O)c1ccc2c(c1)[C@]1(CC[C@H](Oc3ccccc3)CC1)C(=O)N2 [Example 107, (1s,4s)-2′-oxo-4-phenoxy-1′,2′-dihydrospiro[cyclohexane-1,3′-indole]-5′-carboxylic acid]
101	94	100	O=C(O)c1ccc2c(c1)[C@]1(CC[C@@H](Oc3ccc(F)cc3)CC1)C(=O)N2 [Example 2]
95	97	101	O=C(O)c1ccc2c(c1)[C@]1(CC[C@@H](Oc3ccccc3Cl)CC1)C(=O)N2 [Example 12, (1r,4r)-4-(2-chlorophenoxy)-2′-oxo-1′,2′-dihydrospiro[cyclohexane-1,3′-indole]-5′-carboxylic acid]
99	100	96	O=C(O)c1ccc2c(c1)[C@]1(CC[C@@H](Oc3ccc(Cl)cc3F)CC1)C(=O)N2 [Example 66, (1r,4r)-4-(4-chloro-2-fluorophenoxy)-2′-oxo-1′,2′-dihydrospiro[cyclohexane-1,3′-indole]-5′-carboxylic acid]
